The results in this text go back to US8450070B2, “Method for screening of cell-protecting agent” (Takeda Pharmaceutical Company Limited, priority 2007, dated 2013).

Series [1] deals with Hsp70. Put plainly: Hsp70 expression-inducing activity in the presence of IL-1β stimulation (western blotting). The class given is cell-based. The conditions noted are these: human normal articular chondrocytes, 10 ng/ml IL-1β, 2 days; FIG. 3. How it is done:
In an embodiment of the step (2), the heat shock protein expression-inducing activity of a test compound was measured using a cell capable of expressing a heat shock protein. Hsp70 was used as the heat shock protein.
Human normal articular chondrocytes (manufactured by Clonetics Corporation) were grown by monolayer culture in a growth medium for articular chondrocytes (CGM, manufactured by Clonetics Corporation) and then suspended to 2.2×10^4 cells/ml in a 1:1 mixture of Dulbecco's modified Eagle's medium/Ham F12 medium. The cell culture was inoculated into a 12-well plate (manufactured by Asahi Techno Glass Corporation) by 3 ml per each well, followed by incubation at 37° C. for a day under 5% CO2. […]
After completion of the electrophoresis, the proteins in the gel were adsorbed onto a nitrocellulose membrane (Hybond-ECL; manufactured by Amersham Pharmacia Biotech Inc.) using HorizBlot (manufactured by Atto Co.). Each protein level was measured by western blotting using anti-Hsp70 antibody (manufactured by Transduction Laboratories) or anti-β-actin antibody (manufactured by Sigma, Inc.) as a primary antibody and horseradish peroxidase-labeled anti-mouse IgG antibody (manufactured by Kirkegaard & Perry Laboratories) as a secondary antibody. β-Actin was used to verify adsorption of the proteins onto the nitrocellulose membrane.

In series [2] the test system is human normal articular chondrocytes. Put plainly: Cell protecting activity against NOR3-induced apoptosis (MTT). The series is classed as cell-based. Particulars: 10 ng/ml IL-1β, 110 μM NOR3, human normal articular chondrocytes; FIG. 6. As to the method: First, human normal articular chondrocytes were suspended to 4×10^4 cells/ml in a growth medium for articular chondrocytes. The cell culture was inoculated into a 96-well plate, followed by incubation at 37° C. for a day under 5% CO2. The medium was exchanged to a 1:1 mixture of Dulbecco's modified Eagle's medium/Ham F12 medium. The test compound and 10 ng/ml of […] were added to the medium, followed by further incubation at 37° C. for a day under 5% CO2. Next, 110 μM nitrogen monoxide-releasing reagent, i.e., (±)-(E)-4-ethyl-2-[(E)-hydroximino]-5-nitro-3-hexenamide (NOR3; manufactured by Dojindo) was added and the mixture was incubated for a day to induce apoptosis of the cells. After completion of the incubation, a viability of the cells was determined using 3-(4,5-dimethylthiazol-2-yl)-2,5-diphenyltetrazorium bromide (MTT; manufactured by Dojindo). […] Compound A was verified to have an excellent cell protecting activity.

Series [3] has the same test system. The experiment in a line: Cytotoxicity (cell viability, WST-8). Particulars: for cell viability (WST-8): 2 days, FIG. 7. The class given is cell-based. How it is done: First, human normal articular chondrocytes were suspended to 5×10^4 cells/ml in a growth medium for articular chondrocytes. The cell culture was inoculated into a 96-well plate, followed by incubation at 37° C. for a day under 5% CO2. The test compound was added to the medium, followed by incubation at 37° C. for further 2 days under 5% CO2.
A general note: Formazan colour is commonly taken as a measure of viable cells.

Series [4] concerns the target T1, His-hHsp90α (Homo sapiens, UniProt P07900).
T1 construct: the Hsp90α coding region was amplified from a human skeletal complementary DNA (cDNA) library; His tag (N); made in house; host or cells: Escherichia coli BL21 (DE3), plasmid pET28b-hHsp90α
Put plainly: Inhibition of binding of His-hHsp90α to immobilized Compound B (SDS-PAGE, silver stain). The conditions noted are these: various concentrations of test compound; FIG. 1.
Description: In an embodiment of the step (1) in the screening method of the invention, the steps of measuring and comparing (i) the binding level of an immobilized imidazothiazine derivative to Hsp90 in the absence of a test compound and (ii) the binding level of an immobilized imidazothiazine derivative to Hsp90 in the presence of a test compound, were performed as follows.
Purified human Hsp90α protein (His-hHsp90α) tagged with histidine at the N terminus through using Escherichia coli was employed as Hsp90.
First, 10 μg of His-hHsp90α was reacted with a test compound of various concentrations in 0.2 ml of a binding buffer (10 mM Tris-HCl, pH 7.5, 20% glycerol, 1 mM EDTA, 500 mM NaCl and 1 mM DTT) containing 0.5% DMF for 30 minutes.

Series [5] has as its target T2, His2-hHsp90α protein (Homo sapiens, UniProt P07900).
T2 construct: the hHsp90α gene was excised from pET28b-hHsp90α using the BamHI cleavage site and the Bpu1102I cleavage site; made in house; host or cells: Escherichia coli BL21 (DE3), plasmid pET15b-hHsp90α
The experiment in a line: Inhibition of binding of [3H]-Compound A to immobilized His2-hHsp90α (SPA beads). The conditions noted are these: 40 nM [3H]-Compound A, various concentrations of test compound; FIG. 2.
Description: In another embodiment of the step (1) of the screening method according to the present invention, measuring and comparing (i) the binding level of immobilized Hsp90 to a labeled imidazothiazine derivative in the absence of a test compound and (ii) the binding level of immobilized Hsp90 to a labeled imidazothiazine derivative in the presence of a test compound were performed.
Purified human Hsp90α protein (His2-hHsp90a) tagged with histidine at the N terminus through using Escherichia coli was employed as Hsp90.
The mixture was reacted overnight at 4° C. in a 96-well LumiNunc plate (manufactured by Nunc, Inc.). The above procedure gave immobilized Hsp90 in which the His2-hHsp90α protein was bound to Ysi (2-5 μm) copper his-tag SPA beads via histidine tag.

In series [6] the target is T3, Hsp90/HSF-1 complex (Homo sapiens, UniProt P07900).
T3 construct: host or cells: human normal articular chondrocytes (lysate)
The experiment in a line: Hsp90/HSF-1 complex disrupting activity (immunoprecipitation from chondrocyte lysate, western blotting). The conditions noted are these: 1 μM compound, 30 minutes, FIG. 4, lane 3. The series is classed as biochemical. As to the method: In another embodiment of the step (2), the activity of a test compound to disrupt the Hsp90/HSF-1 complex was measured. The substance having the activity to disrupt Hsp90/HSF-1 complex is expected to show the heat shock protein expression-inducing activity.
Human normal articular chondrocytes (manufactured by Clonetics) were washed with PBS and dissolved in RIPA buffer solution (50 mM Tris-HCl, pH 8.0, 150 mM NaCl, 1% NP-40, 0.1% SDS and 0.5% deoxycholic acid) containing a proteinase inhibitor (Complete; Boehringer Mannheim). After the solution was centrifuged at 16,000×g for 10 minutes, the supernatant was used as the lysate containing the Hsp90/HSF-1 complex. […]
After completion of the electrophoresis, the proteins in the gel were adsorbed onto a nitrocellulose membrane (Hybond-ECL; manufactured by Amersham Pharmacia Biotech Inc.) using HorizBlot (manufactured by Atto Co.). Each protein level was measured by western blotting using anti-HSF-1 antibody (manufactured by StressGen) or anti-Hsp90 antibody (manufactured by Transduction Laboratories) as a primary antibody and horseradish peroxidase-labeled anti-rabbit IgG antibody (manufactured by Cell Signaling Technology) or horseradish peroxidase-labeled anti-mouse IgG antibody (manufactured by Kirkegasrd & Perry Laboratories) as a secondary antibody.
(A western blot detects proteins with antibodies after separation by electrophoresis.)

Series [7] concerns Hsp90 client protein such as glucocorticoid receptor, Akt, cyclin dependent kinase 4. The experiment in a line: Hsp90 client protein degradation-inducing activity (western blotting). The series is classed as cell-based, human.
Description: Human normal articular chondrocytes were suspended to 0.5×10^5 cells/ml in a growth medium for articular chondrocytes. The cell culture was inoculated into a 6-well plate (manufactured by Falcon Co., Ltd.) by 2 ml per each well, followed by incubation at 37° C. for a day under 5% CO2. The medium was exchanged to a 1:1 mixture of Dulbecco's modified Eagle's medium/Ham F12 medium, followed by further incubation at 37° C. for a day under 5% CO2.
The test compound was added to the culture medium and the cells were further incubated for about 18 hours at 37° C. under 5% CO2. After completion of the incubation, the cells were washed once with phosphate-buffered saline (PBS) and 200 μl of a cell lysate buffer (10 mM Tris(hydroxymethyl)aminomethane, pH 7.4, 150 mM NaCl, 1 mM EDTA.2Na, 1 mM EGTA, 0.5 mM (p-aminophenyl)methanesulfonyl fluoride hydrochloride, 200 μM sodium β-glycerophosphate n-hydrate, 20 mM NaF, 2 mM sodium diphosphate decahydrate, 10 μg/ml aprotinin, 10 μg/ml leupeptin, 1% Triton X-100, 0.5% Nonidet P40, 0.1% SDS and 1 mM o-vanadate) was added thereto. After the cell debris was scraped from the plate using a cell scraper, the cell lysate buffer was recovered. The recovered cell lysate buffer was mixed with the equal volume of a sample buffer (Tris-SDS-ME Sample Buffer; manufactured by Daiichi Pure Chemicals). […]

Turning to `COC1=C2C[C@@H](C)C[C@H](OC)[C@H](O)[C@@H](C)/C=C(\C)[C@H](OC(N)=O)[C@@H](OC)/C=C\C=C(/C)C(=O)NC(=CC1=O)C2=O` (relative stereo) [GA, [18S-(4E,5Z,8R*,9R*,10E,12R*,13S*,14R*,16S*)]-9-[(aminocarbonyl)oxy]-13-hydroxy-8,14,19-trimethoxy-4,10,12,16-tetramethyl-2-azabicyclo[16.3.1.]docosa-4,6,10,18,21-pentan-3,20,22-trion, reference compound], the Hsp70 protein level entry in series [1] was “clearly increased”. Moreover, the “apoptosis / cell viability after NOR3 (MTT)” value in series [2] was “decreased the cell viability”. Besides, the “cell viability (WST-8)” value in series [3] (at concentrations of 30 nM or higher) is on record as “greatly decreased”.

In the case of `Cc1ccc(S(=O)(=O)/N=c2\[nH]c(=O)n3c(C)c(C)sc(SCCCC(F)(F)C(F)(F)F)c2-3)cc1` [Compound A, N-[(1Z)-5,6-dimethyl-3-oxo-8-[(4,4,5,5,5-pentafluoropentyl)sulfanyl]-2,3-dihydro-1H-imidazo[5,1-c][1,4]thiazin-1-ylidene]-4-methylbenzenesulfonamide], the “binding level of the His-hHsp90α protein to the immobilized Compound B” value in series [4] was “dose-dependently decreased”. Further, in series [5], the “binding level of the His2-hHsp90α protein to [3H]-compound A” value is given as “dose-dependently decreased”. Besides, the Hsp70 protein level result in series [1] is reported as “clearly increased”. In addition, the “co-precipitation of HSF-1 with Hsp90 (anti-Hsp90 antibody immunoprecipitation)” value in series [6] is “not observed”. The “intracellular protein level of Hsp90 client protein (glucocorticoid receptor, Akt, cyclin dependent kinase 4)” value in series [7] (human normal articular chondrocytes, about 18 hours, at concentrations of 10 μM or less, FIG. 5) is listed as “did not affect”. In series [7] (ratio relative to GA), the “client protein degradation-inducing activity as compared to GA” value is given as “less than 1/1000”. In addition, in series [2], the “apoptosis / cell viability after NOR3 (MTT)” value is “dose-dependently suppressed the apoptosis”. The “cell viability (WST-8)” value in series [3] (at concentrations of 10 μM or less) is given as “did not affect”. In addition, the “cytotoxicity relative to that of GA” value in series [3] (ratio relative to GA) was 1/300.
